These results are taken from publication PMC3896336, “Discovery of a Novel Target for the Dysglycemic Chromogranin A Fragment Pancreastatin: Interaction with the Chaperone GRP78 to Influence Metabolism” (PLoS ONE, 2014).

“Also recorded” adds a separate entry of the source. Where no end group is shown, it is not given here.

One assay relates to db/db mice. The arrangement: method as in PMID 16931765. The note with it: ref [38]; cited from earlier work.
Assay [1] has as its system human G6P-ase promoter-luciferase reporter, HepG2 hepatocytes. The assay is described as follows: G6Pase promoter-luciferase reporter activity in HepG2 hepatocytes. It is filed as cell-based. The note with it: for effect on reduction of G6Pase promoter activity by GRP78 over-expression: PST 100 nM, HepG2 with pCMV-GRP78, Fig. 6B; for effect on reduction of G6Pase promoter activity by GRP78 over-expression / basal G6Pase-luciferase promoter activity with GRP78 ATPase inhibitor: VER-155008 1 µM or ADP 10 µM; for basal G6Pase-luciferase promoter activity with GRP78 ATPase inhibitor: HepG2, Fig. 6B. On the procedure: The human G6P-ase promoter-luciferase reporter plasmid has been described. The GRP78 (BIP) promoter-luciferase reporter was a gift from Bruce M. Spiegelman (Harvard Medical School). The pCMV promoter-driven human GRP78 (HSPA5) expression plasmid was from Origene <www.origene.com/>. pSV-Beta-Gal (a transfection efficiency control plasmid, in which the SV40 early promoter drives expression of beta-galactosidase) was obtained from Promega <www.promega.com>.
Cells were plated on 24 well tissue culture plates the day before transfection. 0.5 to 1.0 µg of total DNA per well was used for transfection with Transfectin (BioRad). In some experiments, pSV-Beta-Gal (Promega; in which the SV40 early promoter drives expression of beta-galactosidase) was co-transfected as a transfection efficiency control. After 5 hrs supernatants were removed and fresh media containing different compounds as mentioned in the respective figures were added. 18 hrs after transfection, supernatants were removed and cells were lysed in passive lysis buffer (Promega) and the luciferase and beta-galactosidase activity were measured. Luciferase activity was normalized by beta-galactosidase as well as cellular protein, determined by dye-binding (coomassie G-250; BioRad).
Figure 5 PST acts on both uptake and mobilization steps for glucose: Effects on cellular glucose metabolism and insulin action. (A) PST and glucose uptake. Mouse 3T3-L1 cells were induced to differentiate into adipocytes, and 7–10 days post-differentiation glucose uptake was measured by incubating cells with 2-deoxy-[^3H]-glucose in the presence or absence of PST (100 nM), insulin (100 nM), or insulin plus PST (100 nM each). (B) Glucose mobilization and PST: Effects on expression of the gluconeogenic/glycogenolytic enzyme G6Pase (glucose-6-phosphatase). Human HepG2 hepatocytes were transfected with a glucose-6-phosphatase (G6P-ase)→luciferase reporter plasmid along with a beta gal reporter plasmid as mentioned in the experimental procedures, and 5 hrs after transfection cells were treated with PST (100 nM), insulin (100 nM), or both insulin and PST (100 nM each). Cells were harvested at 18–20 hrs after transfection to measure luciferase activity, beta gal activity and protein.
(§1) Figure 6 Role of the gluconeogenic/glycogenolytic enzyme G6Pase: Response to PST, GRP78, and inhibition of GRP78's ATPase enzymatic activity. (A) G6Pase expression, PST, and GRP78. Human HepG2 hepatocytes were transfected with G6P-ase→luciferase, along with pCMV-GRP78 or an empty vector (pCMV promoter without insert). 5 hrs after transfection, cells were treated with PST (100 nM) itself (versus mock), or by UPR activation (tunicamycin, 5 µg/mL; or thapsigargin, 0.3 µM). Cells were harvested at 18–20 hrs to measure luciferase activity and protein. (B) G6Pase expression during ATPase enzymatic activity inhibition of GRP78. Human HepG2 hepatocytes were transfected as in (A), and 5 hrs later were treated with the GRP78 ATPase inhibitors VER-155008 (1 µM), ADP (10 µM), or PST (100 nM). Cells were harvested at 18–20 hrs to measure luciferase activity and protein. (C) GRP78 expression: Visualization by immunoblot. Changes in GRP78 expression are shown by anti-GRP78 immunoblot (control: anti-actin), during either UPR activation (by thapsigargin 0.3 µM or tunicamycin 5 µg/mL), or exogenous over-expression (transfection of pCMV-GRP78).
For orientation: A reporter such as luciferase makes a cellular process visible.

Assay [2] relates to GRP78 protein expression, HepG2 hepatocytes. Description: GRP78 protein expression by anti-GRP78 immunoblot in hepatocytes. It is filed as cell-based, human. To be noted: UPR activation by tunicamycin 5 µg/mL or thapsigargin 0.3 µM; Fig. 6C. On the procedure: as §1
The next assay concerns cellular glucose uptake. The note with it: naturally occurring human variant; ref [14]; cited from earlier work. From the text:
The activity of PST as a regulatory gastroenteropancreatic peptide has been established in the light of a variety of biological effects in a number of tissues [6]–[9], including its role in modulation of energy metabolism, with a general counter-regulatory effect to insulin. […] Metabolic effects of PST have been c ...

A further assay concerns GRP78 (HSPA5, BIP). The assay is described as follows: Ligand affinity isolation of PST binding protein from mouse liver membranes (biotinylated peptide as bait, streptavidin agarose, SDS-PAGE, LC-MS/MS). The note with it: control ligand affinity experiment, immobilized biotinylated catestatin (human CHGA352–372), liver homogenate; results not shown.

Protocol for GRP78 (HSPA5, BIP): Freshly obtained normal mouse liver was homogenized in cold, freshly prepared buffer (10 mM Hepes, pH 7.4, 0.1 mM EDTA) with a cocktail of protease inhibitors (Protease inhibitor cocktail set III, Calbiochem at 1∶100: PMSF 5 mM, benzamidine hydrochloride 50 mg/mL, TLCK [N-Tosyl-Lys Chloromethyl Ketone] hydrochloride 0.1 mM), and centrifuged at 50,000 g for 30 min to pellet crude membranes. The membrane preparation was washed once with the same buffer and then solubilized with 1% v/v Triton X-100 in 25 mM Hepes pH 7.4, 100 mM NaCl, 2 mM MgCl2, 1 mM KCl and protease inhibitor cocktail as mentioned above, for 1 hr at 4°C, then centrifuged at 100,000 g for 1 hr, and the supernatant was saved.
The streptavidin resin was washed extensively with the same buffer and then incubated with solubilized liver membranes for 18 hr at 4°C. […] Fractions eluted were concentrated by TCA precipitation and analyzed on 8–16% SDS-PAGE gradient slab gels, stained with coomassie blue G-250 (SimplyBlue Safestain; Invitrogen).
Gel slices were cut to 1×1 mm cubes and destained 3 times by first washing with 100 µl of 100 mM ammonium bicarbonate for 15 min, followed by addition of 100 µl acetonitrile (ACN) for 15 min. […] The combined extractions were analyzed directly by reverse-phase liquid chromatography (LC) in combination with tandem mass spectroscopy (MS/MS) using electrospray ionization [29]. […]

On to `O=C(O)CCCc1ccccc1` [4-phenylbutyric acid (PBA), 4-phenylbutyric acid], for which the “ER stress, glucose homeostasis and insulin sensitivity” value with db/db mice was “reduced ER stress, with restored glucose homeostasis and improved insulin sensitivity”.

Consider `Nc1ncnc2c1ncn2[C@@H]1O[C@H](COP(=O)(O)OP(=O)(O)O)[C@@H](O)[C@H]1O` [ADP, adenosine 5′-diphosphate], for which, in assay [1], the “effect on reduction of G6Pase promoter activity by GRP78 over-expression” value was “could not fully overcome the effect of GRP78 over-expression; also recorded: could still be partially reversed” and the “basal G6Pase-luciferase promoter activity with GRP78 ATPase inhibitor” value is listed as “basal G6Pase-luciferase promoter activity rose (Fig. 6B) to a level comparable to PST activation”. On to `C[C@H](CCC(=O)NCCS(=O)(=O)O)[C@H]1CC[C@H]2[C@@H]3[C@@H](O)C[C@@H]4C[C@H](O)CC[C@]4(C)[C@H]3CC[C@]12C` [TUDCA, tauroursodeoxycholic acid], for which the “ER stress, glucose homeostasis and insulin sensitivity” value with db/db mice was “reduced ER stress, with restored glucose homeostasis and improved insulin sensitivity”. For the compound `N#Cc1ccc(COC[C@H]2O[C@@H](n3c(NCc4ccc(Cl)c(Cl)c4)nc4c(N)ncnc43)[C@H](O)[C@@H]2O)cc1` [VER-155008], in assay [1], the “effect on reduction of G6Pase promoter activity by GRP78 over-expression” value is “could not fully overcome the effect of GRP78 over-expression; also recorded: could still be partially reversed” and the “basal G6Pase-luciferase promoter activity with GRP78 ATPase inhibitor” value is “basal G6Pase-luciferase promoter activity rose (Fig. 6B) to a level comparable to PST activation”. Take `C/C=C(/C)C(=O)O[C@H]1C(C)=C2[C@H]([C@@H]1OC(=O)CCCCCCC)[C@@](C)(OC(C)=O)C[C@H](OC(=O)CCC)[C@@]1(O)[C@H]2OC(=O)[C@@]1(C)O` [thapsigargin]: in assay [2], the “increase in GRP78 protein expression as compared to untreated cells” value is about 15 fold. Take “Gly297Ser: naturally occurring human PST variant, Gly297Ser in the functionally important carboxyl terminus of the peptide (SEALAVDGAGKPGAEEAQDPEGKGEQEHSQQKEEEEEMAVVPQSLFRG; ends and bridges not checked; UniProt P10645 272-319, looked up, variant G297S)”: in the assay on cellular glucose uptake, the “potency to inhibit cellular glucose uptake” value was “substantially increasing its potency to inhibit cellular glucose uptake”. Take catestatin: in the assay on GRP78 (HSPA5, BIP), the “pull down of GRP78” value is “did not pull down the GRP78 protein”. For the compound insulin, the “suppression of PST-induced activation of the G6Pase promoter” value in assay [1] (insulin 100 nM plus PST 100 nM, HepG2, Fig. 5B) was about 40%. In the case of tunicamycin, the “increase in GRP78 protein expression as compared to untreated cells” value in assay [2] was about 15 fold.
